Assay: xn = mol fraction of the nth substance listed
Settings: 101 kPa, Liquid; for electrical conductivity: Frequency=0.0005 MHz, crison conductivimeter

CCCCn1cc[n+](C)c1.F[B-](F)(F)F [1-butyl-3-methylimidazolium tetrafluoroborate] + O
Settings	electrical conductivity [S/m]	viscosity [mPa·s]
288.15 K, x2 = 0	–	173.5
288.15 K, x2 = 0.0476	–	134.1
288.15 K, x2 = 0.1091	–	108.4
288.15 K, x2 = 0.143	–	89.3
288.15 K, x2 = 0.2389	–	58.2
288.15 K, x2 = 0.3078	–	45.6
288.15 K, x2 = 0.4	–	32.5
288.15 K, x2 = 0.4954	1.4	–
288.15 K, x2 = 0.5054	–	21.1
288.15 K, x2 = 0.6266	–	13.77
288.15 K, x2 = 0.6992	–	9.78
288.15 K, x2 = 0.7981	–	6.69
288.15 K, x2 = 0.9032	–	3.83
298.15 K, x2 = 0	0.352	99.2
298.15 K, x2 = 0.0476	–	78.7
298.15 K, x2 = 0.1091	–	65.6
298.15 K, x2 = 0.143	–	55.1
298.15 K, x2 = 0.2235	0.785	–
298.15 K, x2 = 0.2389	–	37.7
298.15 K, x2 = 0.3078	–	30.2
298.15 K, x2 = 0.3705	1.3	–
298.15 K, x2 = 0.4	–	22.1
298.15 K, x2 = 0.4835	1.86	–
298.15 K, x2 = 0.4954	2.02	–
298.15 K, x2 = 0.5054	–	14.72
298.15 K, x2 = 0.6173	2.75	–
298.15 K, x2 = 0.6266	–	9.82
298.15 K, x2 = 0.6992	–	7.07
298.15 K, x2 = 0.7167	3.64	–
298.15 K, x2 = 0.777	4.2	–
298.15 K, x2 = 0.7981	–	4.89
298.15 K, x2 = 0.8168	4.55	–
298.15 K, x2 = 0.8458	4.84	–
298.15 K, x2 = 0.8684	5	–
298.15 K, x2 = 0.8879	5.08	–
298.15 K, x2 = 0.9031	5.09	–
298.15 K, x2 = 0.9032	–	2.79
298.15 K, x2 = 0.9151	5.08	–
298.15 K, x2 = 0.9245	5.05	–
298.15 K, x2 = 0.9322	4.98	–
298.15 K, x2 = 0.9396	4.84	–
298.15 K, x2 = 0.9457	4.81	–
298.15 K, x2 = 0.952	4.73	–
298.15 K, x2 = 0.9572	4.65	–
298.15 K, x2 = 0.9615	4.54	–
298.15 K, x2 = 0.9654	4.41	–
298.15 K, x2 = 0.9713	4.15	–
298.15 K, x2 = 0.9801	3.64	–
298.15 K, x2 = 0.9861	3.14	–
298.15 K, x2 = 0.9896	2.68	–
298.15 K, x2 = 0.993	2.11	–
298.15 K, x2 = 0.9951	1.64	–
298.15 K, x2 = 0.9961	1.43	–
298.15 K, x2 = 0.9974	1.05	–
298.15 K, x2 = 0.9982	0.788	–
298.15 K, x2 = 0.999	0.475	–
298.15 K, x2 = 0.9996	0.2	–
308.15 K, x2 = 0	–	61.3
308.15 K, x2 = 0.0476	–	49.8
308.15 K, x2 = 0.1091	–	42.4
308.15 K, x2 = 0.143	–	36.3
308.15 K, x2 = 0.2389	–	25.9
308.15 K, x2 = 0.3078	–	21.1
308.15 K, x2 = 0.4	–	15.81
308.15 K, x2 = 0.4954	2.61	–
308.15 K, x2 = 0.5054	–	10.8
308.15 K, x2 = 0.6266	–	7.33
308.15 K, x2 = 0.6992	–	5.34
308.15 K, x2 = 0.7981	–	3.75
308.15 K, x2 = 0.9032	–	2.47
318.15 K, x2 = 0	–	40.4
318.15 K, x2 = 0.0476	–	33.5
318.15 K, x2 = 0.1091	–	29.1
318.15 K, x2 = 0.143	–	25.3
318.15 K, x2 = 0.2389	–	18.62
318.15 K, x2 = 0.3078	–	15.47
318.15 K, x2 = 0.4	–	11.81
318.15 K, x2 = 0.4954	3.25	–
318.15 K, x2 = 0.5054	–	8.24
318.15 K, x2 = 0.6266	–	5.68
318.15 K, x2 = 0.6992	–	4.18
318.15 K, x2 = 0.7981	–	2.96
318.15 K, x2 = 0.9032	–	1.717
